What all share (experiment): biochemical
What all share (assay type): binding

Experiment [1] concerns the target T1, panel of 442 kinases (Homo sapiens, UniProt P29320).
T1 construct: purchased Ambit Biosciences (scanMAXX KINOMEscan)
T1 sequence (P29320 21-983): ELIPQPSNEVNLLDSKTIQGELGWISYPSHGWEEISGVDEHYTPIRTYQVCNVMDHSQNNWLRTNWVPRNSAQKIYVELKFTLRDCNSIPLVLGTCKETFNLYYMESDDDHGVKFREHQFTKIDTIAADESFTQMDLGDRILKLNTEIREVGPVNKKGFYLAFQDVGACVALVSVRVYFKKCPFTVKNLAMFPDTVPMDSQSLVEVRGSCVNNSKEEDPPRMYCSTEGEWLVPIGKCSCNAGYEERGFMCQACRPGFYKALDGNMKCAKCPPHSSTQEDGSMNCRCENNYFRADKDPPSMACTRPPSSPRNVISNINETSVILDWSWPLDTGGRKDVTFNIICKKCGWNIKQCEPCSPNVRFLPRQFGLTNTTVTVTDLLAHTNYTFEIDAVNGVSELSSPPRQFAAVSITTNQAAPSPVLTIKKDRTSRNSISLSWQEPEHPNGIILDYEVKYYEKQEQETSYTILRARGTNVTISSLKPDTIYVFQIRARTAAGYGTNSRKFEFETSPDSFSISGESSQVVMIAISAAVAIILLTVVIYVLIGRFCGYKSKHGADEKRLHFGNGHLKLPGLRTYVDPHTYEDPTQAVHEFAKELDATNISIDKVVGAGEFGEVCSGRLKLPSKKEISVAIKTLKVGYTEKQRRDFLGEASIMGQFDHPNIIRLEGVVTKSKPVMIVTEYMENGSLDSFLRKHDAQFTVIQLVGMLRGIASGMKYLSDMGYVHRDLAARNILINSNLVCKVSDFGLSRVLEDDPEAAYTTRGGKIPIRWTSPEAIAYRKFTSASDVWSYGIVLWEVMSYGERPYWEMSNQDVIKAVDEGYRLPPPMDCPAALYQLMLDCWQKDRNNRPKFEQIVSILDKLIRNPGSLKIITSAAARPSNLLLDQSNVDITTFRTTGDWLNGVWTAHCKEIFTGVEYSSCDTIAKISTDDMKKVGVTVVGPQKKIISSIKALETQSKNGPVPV
The following applies: EPHA3; for remaining activity at 1 µM: read-out: % of control at 1 µM.

Experiment [2] deals with T2, panel of 442 kinases (Homo sapiens, UniProt Q9UQ88).
T2 construct: purchased Ambit Biosciences (scanMAXX KINOMEscan)
T2 sequence (Q9UQ88 1-783): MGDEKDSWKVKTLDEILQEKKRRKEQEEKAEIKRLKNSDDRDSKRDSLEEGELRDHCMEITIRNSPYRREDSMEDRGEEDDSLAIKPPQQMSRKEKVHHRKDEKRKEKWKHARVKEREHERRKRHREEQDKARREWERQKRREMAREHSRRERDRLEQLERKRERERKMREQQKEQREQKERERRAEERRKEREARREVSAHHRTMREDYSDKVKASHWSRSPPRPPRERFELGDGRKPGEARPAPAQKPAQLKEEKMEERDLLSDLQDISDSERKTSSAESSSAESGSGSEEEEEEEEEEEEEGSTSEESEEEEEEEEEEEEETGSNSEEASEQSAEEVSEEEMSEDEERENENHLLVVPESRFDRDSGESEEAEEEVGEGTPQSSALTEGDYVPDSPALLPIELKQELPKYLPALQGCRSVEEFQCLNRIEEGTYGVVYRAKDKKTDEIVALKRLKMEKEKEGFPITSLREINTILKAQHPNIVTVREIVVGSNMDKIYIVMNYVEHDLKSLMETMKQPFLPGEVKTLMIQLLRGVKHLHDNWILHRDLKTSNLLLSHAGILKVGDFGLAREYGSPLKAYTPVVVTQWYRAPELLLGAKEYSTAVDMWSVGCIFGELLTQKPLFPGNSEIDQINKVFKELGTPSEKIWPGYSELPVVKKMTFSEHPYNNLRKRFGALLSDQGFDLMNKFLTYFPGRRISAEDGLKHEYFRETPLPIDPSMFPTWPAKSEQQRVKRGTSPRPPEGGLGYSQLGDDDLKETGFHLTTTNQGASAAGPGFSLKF
The following applies: CDC2L2; for remaining activity at 1 µM: read-out: % of control at 1 µM.

For experiment [3], the target named is T3, panel of 442 kinases (Homo sapiens, UniProt Q15831).
T3 construct: purchased Ambit Biosciences (scanMAXX KINOMEscan)
T3 sequence (Q15831 1-433): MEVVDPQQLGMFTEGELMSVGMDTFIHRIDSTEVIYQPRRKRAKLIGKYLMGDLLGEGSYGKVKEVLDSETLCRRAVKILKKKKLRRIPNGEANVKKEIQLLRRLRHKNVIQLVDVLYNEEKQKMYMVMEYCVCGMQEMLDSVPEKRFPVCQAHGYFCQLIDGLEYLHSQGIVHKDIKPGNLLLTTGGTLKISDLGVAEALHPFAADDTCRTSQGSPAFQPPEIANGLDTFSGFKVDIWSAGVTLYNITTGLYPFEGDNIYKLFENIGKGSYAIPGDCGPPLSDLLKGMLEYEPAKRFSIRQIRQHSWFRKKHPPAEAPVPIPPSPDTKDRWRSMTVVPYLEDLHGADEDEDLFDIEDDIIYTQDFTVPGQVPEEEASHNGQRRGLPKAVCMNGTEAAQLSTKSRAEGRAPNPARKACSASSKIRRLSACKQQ
Particulars: kinase LKB1; for remaining activity at 1 µM: read-out: % of control at 1 µM.

Where [4] appears, read: 10 µM, read-out: % of control at 10 µM.

Structures are written as SMILES.

In the case of `COc1ncc(-c2ccc3nccc(-c4ccnnc4)c3c2)cc1NS(=O)(=O)c1ccc(F)cc1F` [Omipalisib], the remaining activity at 1 µM in experiment [1], in experiment [2] and in experiment [3] was 100% throughout.

In the case of `Cn1c(=O)n(-c2ccc(C(C)(C)C#N)cc2)c2c3cc(-c4cnc5ccccc5c4)ccc3ncc21` [Dactolisib, 2-methyl-2-[4-(3-methyl-2-oxo-8-quinolin-3-yl-2,3-dihydroimidazo[4,5-c]quinolin-1-yl)-phenyl] propionitrile], the remaining activity at 1 µM in experiment [1] was 63%; in experiment [2], 89%; in experiment [3], 93%.

As for `Nc1cc(C(F)(F)F)c(-c2cc(N3CCOCC3)nc(N3CCOCC3)n2)cn1` [Buparlisib], the results for the remaining activity at 1 µM in experiment [1], in experiment [2] and in experiment [3] were 96%, 100% and 100%, respectively. For the same compound, the remaining activity at 10 µM in experiment [1] (setting [4]) amounted to 100%; in experiment [2] (setting [4]), 99%; in experiment [3] (setting [4]) it was 99%.

Turning to `FC(F)c1nc2ccccc2n1-c1nc(N2CCOCC2)nc(N2CCOCC2)n1` [ZSTK474, 2-(difluoromethyl)-1-[4,6-di(4-morpholinyl)-1,3,5-triazin-2-yl]-1H-benzimidazole], the remaining activity at 1 µM in experiment [1] amounted to 93%; in experiment [2], 100%; in experiment [3] it was 100%.

These data come from article PMC5564600 (Oncotarget, 2017).
